Test results as given in BigSolDB 2.1.

CCCc1nc2c(C)cc(-c3nc4ccccc4n3C)cc2n1Cc1ccc(-c2ccccc2C(=O)O)cc1
solubility (mole fraction) (in acetone, 278.55 K): 4.42e-05
solubility (mole fraction) (in acetone, 287.45 K): 5.71e-05
solubility (mole fraction) (in acetone, 294.55 K): 7.76e-05
solubility (mole fraction) (in acetone, 303.85 K): 9.45e-05
solubility (mole fraction) (in acetone, 308.75 K): 0.000112
solubility (mole fraction) (in acetone, 316.25 K): 0.000141
solubility (mole fraction) (in acetone, 325.75 K): 0.000193
solubility (mole fraction) (in benzene, 278.55 K): 6.95e-05
solubility (mole fraction) (in benzene, 288.45 K): 0.000111
solubility (mole fraction) (in benzene, 299.85 K): 0.000163
solubility (mole fraction) (in benzene, 307.25 K): 0.000236
solubility (mole fraction) (in benzene, 316.15 K): 0.000289
solubility (mole fraction) (in benzene, 324.35 K): 0.000361
solubility (mole fraction) (in benzene, 333.35 K): 0.000488
solubility (mole fraction) (in chloroform, 278.75 K): 0.00533
solubility (mole fraction) (in chloroform, 289.45 K): 0.00624
solubility (mole fraction) (in chloroform, 296.95 K): 0.00701
solubility (mole fraction) (in chloroform, 298.15 K): 0.00725
solubility (mole fraction) (in chloroform, 303.95 K): 0.00747
solubility (mole fraction) (in chloroform, 308.35 K): 0.00771
solubility (mole fraction) (in chloroform, 313.15 K): 0.00799
solubility (mole fraction) (in dichloromethane, 278.35 K): 0.0015
solubility (mole fraction) (in dichloromethane, 286.55 K): 0.00177
solubility (mole fraction) (in dichloromethane, 293.95 K): 0.00205
solubility (mole fraction) (in dichloromethane, 298.05 K): 0.00216
solubility (mole fraction) (in dichloromethane, 305.25 K): 0.00246
solubility (mole fraction) (in dichloromethane, 308.35 K): 0.00261
solubility (mole fraction) (in dichloromethane, 311.75 K): 0.00272
solubility (mole fraction) (in ethanol, 277.85 K): 3.06e-05
solubility (mole fraction) (in ethanol, 288.45 K): 4.57e-05
solubility (mole fraction) (in ethanol, 298.45 K): 6.33e-05
solubility (mole fraction) (in ethanol, 308.35 K): 9e-05
solubility (mole fraction) (in ethanol, 313.45 K): 0.000117
solubility (mole fraction) (in ethanol, 329.75 K): 0.000219
solubility (mole fraction) (in ethanol, 333.65 K): 0.000255
solubility (mole fraction) (in ethyl acetate, 283.65 K): 2.47e-05
solubility (mole fraction) (in ethyl acetate, 293.35 K): 4.17e-05
solubility (mole fraction) (in ethyl acetate, 303.65 K): 5.9e-05
solubility (mole fraction) (in ethyl acetate, 305.35 K): 6.26e-05
solubility (mole fraction) (in ethyl acetate, 317.95 K): 8.83e-05
solubility (mole fraction) (in ethyl acetate, 329.45 K): 0.000123
solubility (mole fraction) (in ethyl acetate, 333.65 K): 0.000148
solubility (mole fraction) (in isopropanol, 288.45 K): 1.55e-05
solubility (mole fraction) (in isopropanol, 298.05 K): 2.77e-05
solubility (mole fraction) (in isopropanol, 309.55 K): 4.1e-05
solubility (mole fraction) (in isopropanol, 316.55 K): 5.62e-05
solubility (mole fraction) (in isopropanol, 321.55 K): 7.41e-05
solubility (mole fraction) (in isopropanol, 329.55 K): 0.000106
solubility (mole fraction) (in isopropanol, 338.35 K): 0.000157
solubility (mole fraction) (in methanol, 278.45 K): 6.03e-05
solubility (mole fraction) (in methanol, 288.55 K): 8.9e-05
solubility (mole fraction) (in methanol, 299.85 K): 0.000132
solubility (mole fraction) (in methanol, 307.35 K): 0.000153
solubility (mole fraction) (in methanol, 313.25 K): 0.000186
solubility (mole fraction) (in methanol, 324.85 K): 0.000271
solubility (mole fraction) (in methanol, 330.05 K): 0.000315
solubility (mole fraction) (in toluene, 278.65 K): 3.55e-05
solubility (mole fraction) (in toluene, 288.45 K): 6.08e-05
solubility (mole fraction) (in toluene, 300.05 K): 8.4e-05
solubility (mole fraction) (in toluene, 306.35 K): 0.000125
solubility (mole fraction) (in toluene, 316.75 K): 0.000169
solubility (mole fraction) (in toluene, 325.85 K): 0.000225
solubility (mole fraction) (in toluene, 334.55 K): 0.000307
